From patent publication US20250162994A1, “DUAL LSD1/HDAC INHIBITORS” (JUBILANT EPICORE LLC, priority 2022, published 2025)
Structures can show the parent of a compound that is named as a salt.

Experiments:
Type in all cases: biochemical
[1] = target: HDAC1 (Homo sapiens (Human), UniProt Q13547); assay: Histone deacetylase assay (BPS Biosciences), HDAC1; details: human recombinant enzyme
Procedure: Histone deacetylase assay was done as per manufacturer's instructions. Briefly, assay buffer, 200 uM HDAC substrate (fluorogenic HDAC acetylated peptide substrate for class I HDACs (HDACs 1, 2 and 3) and class 2b HDACs (HDACs 6 and 10) and 1% BSA are taken as a master mixture and aliquoted as 40 uL per well. Compounds (10×) were diluted in assay buffer and were added to respective wells of a black 96 well plate. For HDAC1 (1.4 ng/μL) and for HDAC6 (7 ng/μL) human recombinant enzyme was thawed on ice and 5 μL of respective enzyme was added per well. The plate was incubated at 37° C. for 1 hour. Developer solution was then added (50 μL per well) and incubated at room temperature for 10 minutes. Fluorescence was measured at an excitation wavelength of 350-380 nm and emission wavelength of 440-480 nm.

[2] = target: HDAC6 (Homo sapiens (Human), UniProt Q9UBN7); assay: Histone deacetylase assay (BPS Biosciences), HDAC6; details: human recombinant enzyme
Procedure: Histone deacetylase assay was done as per manufacturer's instructions. […] Fluorescence was measured at an excitation wavelength of 350-380 nm and emission wavelength of 440-480 nm.

[3] = target: LSD1 (Homo sapiens (Human), UniProt O60341); assay: TR-FRET assay for LSD1 (Perkin Elmer)
Procedure: LSD1 enzyme was produced in house. Tranylcypromine (TCP), LSD1 inhibitor was procured from Selleckchem. LSD1 enzyme, TCP and Biotinylated peptide substrate were diluted in assay buffer just before use. 2× inhibitor (10 μL, diluted in assay buffer) or Assay Buffer, and 5 nM enzyme were added to a 96 well plate and incubated at room temperature for 30 min. […] Stop Solution containing 300 μM tranylcypromine in 1×LANCE Detection Buffer was added to the wells and incubated for 5 min at RT. Then, Detection mixture containing 2 nM Eu-Ab and 50 nM ULight-Streptavidin in 1×LANCE Detection Buffer was prepared and added to the reaction mixture. This mixture was incubated for 1 hour at room temperature.

Sequence of HDAC1 (Q13547 whole entry): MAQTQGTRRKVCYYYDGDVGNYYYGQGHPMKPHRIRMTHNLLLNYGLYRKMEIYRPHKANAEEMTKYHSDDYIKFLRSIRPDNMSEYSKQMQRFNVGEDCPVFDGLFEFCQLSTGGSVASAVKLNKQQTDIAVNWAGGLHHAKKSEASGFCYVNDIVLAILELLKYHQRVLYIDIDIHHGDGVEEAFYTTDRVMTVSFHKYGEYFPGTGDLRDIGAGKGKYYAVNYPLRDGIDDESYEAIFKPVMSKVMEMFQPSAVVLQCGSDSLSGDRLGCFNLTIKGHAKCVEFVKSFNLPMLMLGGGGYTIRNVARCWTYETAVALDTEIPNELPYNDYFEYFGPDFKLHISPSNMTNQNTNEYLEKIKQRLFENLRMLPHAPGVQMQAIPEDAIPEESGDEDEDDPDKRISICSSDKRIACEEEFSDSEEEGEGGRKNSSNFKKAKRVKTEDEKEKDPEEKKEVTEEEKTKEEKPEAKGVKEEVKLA
Sequence of HDAC6 (Q9UBN7 whole entry): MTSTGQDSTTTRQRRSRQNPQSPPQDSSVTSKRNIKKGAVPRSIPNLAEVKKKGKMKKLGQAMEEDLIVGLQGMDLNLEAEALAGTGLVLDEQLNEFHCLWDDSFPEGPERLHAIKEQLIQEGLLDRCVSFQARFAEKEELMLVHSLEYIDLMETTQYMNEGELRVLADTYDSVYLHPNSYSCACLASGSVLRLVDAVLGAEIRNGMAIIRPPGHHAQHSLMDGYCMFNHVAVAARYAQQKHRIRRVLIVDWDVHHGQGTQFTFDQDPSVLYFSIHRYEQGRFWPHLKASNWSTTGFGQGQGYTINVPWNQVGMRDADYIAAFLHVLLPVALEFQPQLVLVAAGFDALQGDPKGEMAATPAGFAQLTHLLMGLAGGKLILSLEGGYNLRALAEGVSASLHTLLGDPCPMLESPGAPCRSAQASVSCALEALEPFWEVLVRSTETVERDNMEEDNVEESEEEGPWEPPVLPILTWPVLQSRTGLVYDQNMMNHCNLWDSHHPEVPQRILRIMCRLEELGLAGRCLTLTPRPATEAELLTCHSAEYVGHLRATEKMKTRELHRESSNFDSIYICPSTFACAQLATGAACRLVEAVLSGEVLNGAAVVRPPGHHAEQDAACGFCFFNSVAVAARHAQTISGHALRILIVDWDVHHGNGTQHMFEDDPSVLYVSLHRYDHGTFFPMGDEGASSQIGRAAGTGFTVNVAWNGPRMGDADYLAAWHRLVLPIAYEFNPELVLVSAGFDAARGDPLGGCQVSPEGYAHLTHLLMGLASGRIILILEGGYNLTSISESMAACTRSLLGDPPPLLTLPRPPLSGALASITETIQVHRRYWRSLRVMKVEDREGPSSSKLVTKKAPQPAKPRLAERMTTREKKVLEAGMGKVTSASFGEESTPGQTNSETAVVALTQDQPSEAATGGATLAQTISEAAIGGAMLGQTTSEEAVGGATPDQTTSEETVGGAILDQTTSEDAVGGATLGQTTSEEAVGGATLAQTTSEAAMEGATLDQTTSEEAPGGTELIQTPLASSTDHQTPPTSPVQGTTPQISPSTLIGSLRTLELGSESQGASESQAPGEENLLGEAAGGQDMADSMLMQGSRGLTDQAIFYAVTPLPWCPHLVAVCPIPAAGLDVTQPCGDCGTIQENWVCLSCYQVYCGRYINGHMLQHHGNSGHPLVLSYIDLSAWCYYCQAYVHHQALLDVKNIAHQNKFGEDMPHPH

| Structure (SMILES) | IC50 [1] | IC50 [2] | IC50 [3] |
| --- | --- | --- | --- |
| O=C(NO)c1ccc(Cn2cc(CN[C@@H]3C[C@H]3c3ccccc3)cn2)cc1 [Compound 1, N-hydroxy-4-((4-((((1R,2S)-2-phenylcyclopropyl)amino)methyl)-1H-pyrazol-1-yl)methyl)benzamide hydrobromide] | 923 nM | – | – |
| O=C(NO)c1ccc(Cn2cc(CN[C@H]3C[C@@H]3c3ccccc3)cn2)cc1 [Compound 2, N-hydroxy-4-((4-((((1S,2R)-2-phenylcyclopropyl)amino)methyl)-1H-pyrazol-1-yl)methyl)benzamide] | 1550 nM | – | – |
| O=C(NO)c1ccc(CCCN2CCC(CN[C@@H]3C[C@H]3c3cnn(-c4ccccc4)c3)CC2)cc1 [Compound 3, N-hydroxy-4-(3-(4-((((1R,2S)-2-(1-phenyl-1H-pyrazol-4-yl)cyclopropyl)amino)methyl)piperidin-1-yl)propyl)benzamide] | – | 88 nM | 9 nM |
| O=C(NO)c1ccc(CCCN2CCC(CN[C@H]3C[C@@H]3c3cnn(-c4ccccc4)c3)CC2)cc1 [Compound 4, N-hydroxy-4-(3-(4-((((1S,2R)-2-(1-phenyl-1H-pyrazol-4-yl)cyclopropyl)amino)methyl)piperidin-1-yl)propyl)benzamide] | – | 72 nM | 5 nM |
| O=C(NO)c1ccc(/C=C/C(=O)N2CC(CN[C@@H]3C[C@H]3c3ccc(F)cc3)C2)cc1 [Compound 5, 4-((E)-3-(3-((((1R,2S)-2-(4-fluorophenyl)cyclopropyl)amino)methyl)azetidin-1-yl)-3-oxoprop-1-en-1-yl)-N-hydroxybenzamide] | – | 84 nM | 31 nM |
| O=C(NO)c1ccc(/C=C/C(=O)N2CC(CN[C@H]3C[C@@H]3c3ccc(F)cc3)C2)cc1 [Compound 6, 4-((E)-3-(3-((((1S,2R)-2-(4-fluorophenyl)cyclopropyl)amino)methyl)azetidin-1-yl)-3-oxoprop-1-en-1-yl)-N-hydroxybenzamide] | – | 144 nM | 147 nM |
| O=C(NO)c1ccc(CCCN2CCC(CN[C@@H]3C[C@H]3c3ccc(-c4cncnc4)cc3)CC2)cc1 [Compound 7, N-hydroxy-4-(3-(4-((((1R,2S)-2-(4-(pyrimidin-5-yl)phenyl)cyclopropyl)amino)methyl)piperidin-1-yl)propyl)benzamide] | 4530 nM | 151 nM | 6 nM |
| O=C(NO)c1ccc(CCCN2CCC(CN[C@H]3C[C@@H]3c3ccc(-c4cncnc4)cc3)CC2)cc1 [Compound 8, N-hydroxy-4-(3-(4-((((1S,2R)-2-(4-(pyrimidin-5-yl)phenyl)cyclopropyl)amino)methyl)piperidin-1-yl)propyl)benzamide] | 2470 nM | 159 nM | 8 nM |
| CN1C(=O)C(C)(C)c2cc([C@@H]3C[C@H]3NCC3CCN(CCCc4ccc(C(=O)NO)cc4)CC3)ccc21 [Compound 9, N-hydroxy-4-(3-(4-((((1R,2S)-2-(1,3,3-trimethyl-2-oxoindolin-5-yl)cyclopropyl)amino)methyl)piperidin-1-yl)propyl)benzamide] | – | 192 nM | 403 nM |
| CN1C(=O)C(C)(C)c2cc([C@H]3C[C@@H]3NCC3CCN(CCCc4ccc(C(=O)NO)cc4)CC3)ccc21 [Compound 10, N-hydroxy-4-(3-(4-((((1S,2R)-2-(1,3,3-trimethyl-2-oxoindolin-5-yl)cyclopropyl)amino)methyl)piperidin-1-yl)propyl)benzamide] | – | 135 nM | 1210 nM |
| Nc1ccccc1NC(=O)c1ccc(CCCN2CCC(CN[C@@H]3C[C@H]3c3ccc(F)cc3)CC2)cc1 [Compound 15, N-(2-aminophenyl)-4-(3-(4-((((1R,2S)-2-(4-fluorophenyl)cyclopropyl)amino)methyl)piperidin-1-yl)propyl)benzamide] | 7720 nM | – | – |
| Nc1ccccc1NC(=O)c1ccc(CCCN2CCC(CN[C@H]3C[C@@H]3c3ccc(F)cc3)CC2)cc1 [Compound 16, N-(2-aminophenyl)-4-(3-(4-((((1S,2R)-2-(4-fluorophenyl)cyclopropyl)amino)methyl)piperidin-1-yl)propyl)benzamide] | 295 nM | – | – |
| CC(C)n1cc([C@@H]2C[C@H]2NCC2CCN(CCCc3ccc(C(=O)Nc4ccccc4N)cc3)CC2)cn1 [Compound 17, N-(2-aminophenyl)-4-(3-(4-((((1R,2S)-2-(1-isopropyl-1H-pyrazol-4-yl)cyclopropyl)amino)methyl)piperidin-1-yl)propyl)benzamide] | 1040 nM | – | 101 nM |
| CC(C)n1cc([C@H]2C[C@@H]2NCC2CCN(CCCc3ccc(C(=O)Nc4ccccc4N)cc3)CC2)cn1 [Compound 18, N-(2-aminophenyl)-4-(3-(4-((((1S,2R)-2-(1-isopropyl-1H-pyrazol-4-yl)cyclopropyl)amino)methyl)piperidin-1-yl)propyl)benzamide] | 2890 nM | – | 139 nM |
| Cn1cc(-c2ccc([C@@H]3C[C@H]3NCC3CCN(Cc4ccc(C(=O)Nc5ccccc5N)cc4)CC3)cc2)ccc1=O [Compound 19, N-(2-aminophenyl)-4-((4-((((1R,2S)-2-(4-(1-methyl-6-oxo-1,6-dihydropyridin-3-yl)phenyl)cyclopropyl)amino)methyl)piperidin-1-yl)methyl)benzamide] | – | – | 6 nM |
| Cn1cc(-c2ccc([C@H]3C[C@@H]3NCC3CCN(Cc4ccc(C(=O)Nc5ccccc5N)cc4)CC3)cc2)ccc1=O [Compound 20, N-(2-aminophenyl)-4-((4-((((1S,2R)-2-(4-(1-methyl-6-oxo-1,6-dihydropvridin-3-yl)phenyl)cyclopropyl)amino)methyl)piperidin-1-yl)methyl)benzamide] | – | – | 20 nM |
| Nc1ccccc1NC(=O)c1ccc(Cn2cc(CN[C@@H]3C[C@H]3c3ccc(F)cc3)nn2)cc1 [Compound 21, N-(2-aminophenyl)-4-((4-((((1R,2S)-2-(4-fluorophenyl)cyclopropyl)amino)methyl)-1H-1,2,3-triazol-1-yl)methyl)benzamide] | – | – | 69 nM |
| Nc1ccccc1NC(=O)c1ccc(Cn2cc(CN[C@H]3C[C@@H]3c3ccc(F)cc3)nn2)cc1 [Compound 22, N-(2-aminophenyl)-4-((4-((((1S,2R)-2-(4-fluorophenyl)cyclopropyl)amino)methyl)-1H-1,2,3-triazol-1-yl)methyl)benzamide] | – | – | 854 nM |
| Nc1ccccc1NC(=O)c1ccc(CCCN2CCC(CN[C@@H]3C[C@H]3c3cnn(-c4ccccc4)c3)CC2)cc1 [Compound 23, N-(2-aminophenyl)-4-(3-(4-((((1R,2S)-2-(1-phenyl-1H-pyrazol-4-yl)cyclopropyl)amino)methyl)piperidin-1-yl)propyl)benzamide] | 262 nM | – | 10 nM |
| Nc1ccccc1NC(=O)c1ccc(CCCN2CCC(CN[C@H]3C[C@@H]3c3cnn(-c4ccccc4)c3)CC2)cc1 [Compound 24, N-(2-aminophenyl)-4-(3-(4-((((1S,2R)-2-(1-phenyl-1H-pyrazol-4-yl)cyclopropyl)amino)methyl)piperidin-1-yl)propyl)benzamide] | 8600 nM | – | 6 nM |
| Nc1ccccc1NC(=O)c1ccc(CCCN2CCC(CN[C@H]3C[C@@H]3c3ccc(F)c(F)c3)CC2)cc1 [Compound 26, N-(2-aminophenyl)-4-(3-(4-((((1S,2R)-2-(3,4-difluorophenyl)cyclopropyl)amino)methyl)piperidin-1-yl)propyl)benzamide] | – | > 10000 nM | – |
| Cc1noc(C)c1-c1ccc([C@@H]2C[C@H]2NCC2CCN(Cc3ccc(C(=O)Nc4ccccc4N)cc3)CC2)cc1 [Compound 27, N-(2-aminophenyl)-4-((4-((((1R,2S)-2-(4-(3,5-dimethylisoxazol-4-yl)phenyl)cyclopropyl)amino)methyl)piperidin-1-yl)methyl)benzamide] | – | – | 6 nM |
| Cc1noc(C)c1-c1ccc([C@H]2C[C@@H]2NCC2CCN(Cc3ccc(C(=O)Nc4ccccc4N)cc3)CC2)cc1 [Compound 28, N-(2-aminophenyl)-4-((4-((((1S,2R)-2-(4-(3,5-dimethylisoxazol-4-yl)phenyl)cyclopropyl)amino)methyl)piperidin-1-yl)methyl)benzamide] | – | – | 29 nM |
| Nc1ccccc1NC(=O)c1ccc(Cn2cc(CN[C@@H]3C[C@H]3c3ccccc3)nn2)cc1 [Compound 29, N-(2-aminophenyl)-4-((4-((((1R,2S)-2-phenylcyclopropyl)amino)methyl)-1H-1,2,3-triazol-1-yl)methyl)benzamide] | – | – | 671 nM |
| Nc1ccccc1NC(=O)c1ccc(Cn2cc(CN[C@@H]3C[C@H]3c3ccccc3)cn2)cc1 [Compound 30, N-(2-aminophenyl)-4-((4-((((1R,2S)-2-phenylcyclopropyl)amino)methyl)-1H-pyrazol-1-yl)methyl)benzamide] | 181 nM | > 10000 nM | 27 nM |
